{"source": "patent US4338331A", "about": "“Isoindoline derivative and a therapeutic composition thereof” (priority 1979, dated 1982)", "assay_type_in_all_cases": "in vivo", "key": {"[1]": {"assay": "Chronic (subacute) toxicity, 28 days oral, male rat", "conditions": "rat, in vivo, 4 weeks", "method": "(§1) These tests were carried out on the male Wistar rat having a body weight which varied from 188 to 228 grams. The animals were randomly divided into groups of ten each, and treated in the following manner:\n(§2) Group A--CONTROLS--10% gum arabic, 10 ml/kg/day by oral administration using a gastro-oesophageal probe for 28 consecutive days;\n(§3) Group B--CM/1 20 mg/10 ml of 10% gum arabic per kg/day by oral administration using a gastro-oesophageal probe for 28 consecutive days;\n(§4) Group C--CM/1 40 mg/10 ml of 10% gum arabic per kg/day by oral administration using a gastro-oesophageal probe for 28 consecutive days.\n(§5) In all the groups tested, the body weight was measured daily at the moment of administration, and recorded at regular intervals.\n(§6) The general conditions of food and water consumption were noted, and any mortality and the symptomatology were recorded.\n(§7) Between the 25th and 27th day of treatment, all the tested groups were kept in suitable metabolic cages (single) in order to collect the urine spontaneously ejected, and thus determine its composition by reactive Bili-Labstix strips of Ames.\n(§8) Between the 27th and 29th day of treatment, all the animals, which has fasted for 12 hours but with free access to water, were sacrificed by decapitation (a small animal decapitator of the Amer. Instr. Corp. was used). The following were determined from the blood collected from the trunk:\n(§9) azotemia (Dell'Aira, in King E.--Microanalisi nella Biochimica medica. II Pensiero Sci. Ed., ROMA 1951);\n(§10) glycemia (Price D. J.--Analyst 92; 198, 1967);\n(§11) total bilirubinemia (Jendrassik L. and Grof. P.--Biochem. Z. 297;81, 1938);\n(§12) total cholesterolemia (Huan T. C., Chen C. P., Wefler V. and Battey A.--Anal. Chem. 33; 1405, 1961);\n(§13) total lipidemia (Zollner N. and Kirsch K.--Z. ges. Exp. Med. 135; 545, 1962)\n(§14) SGOT and SGPT transaminase (Reitman S. and Frankel E.--Amer J. Clin. Path. 28;56, 1957);\n(§15) total protidemia by the biuret colorimetric method, using lyphilised Hyland serum as standard;\n(§16) sodaemia and potassaemia using the photometric method.\n(§17) A macroscopic examination was also made of the main organs in order to note any alterations or tumor masses which could indicate neoplasia. Particular attention was given to the examination of the stomach and intestine of the rats treated with the highest dose, in order to determine the degree of local tolerability to repeated administration of CM/1 over 28 days by the gastro-enteric mucosa.\n(§18) For this purpose, the stomach and intestine were subjected to macro and microscopic examination, these being sectioned along the greater curvature (stomach) and along the major axis (intestine), washed with tepid physiological solution extended and carefully observed with a magnifying lens, in order to note hyperemia zones with ulcerations or with other trophic alterations of the mucosa."}, "male Wistar rat [2]": {"system": "male Wistar rat", "assay": "Chronic (subacute) toxicity, 28 days oral, male rat", "conditions": "20 and 40 mg/kg/day oral, 28 days", "method": "as §1, §2, §3, §4, §5, §6, §7, §8, §9, §10, §11, §12, §13, §14, §15, §16, §17, §18"}, "male Wistar rat [3]": {"system": "male Wistar rat", "assay": "Chronic (subacute) toxicity, 28 days oral, male rat", "conditions": "20 mg/kg and 40 mg/kg, printed '48 consecutive days'"}}}
{"compound": "CC1c2ccccc2CN1NC(=O)c1ccc(Cl)c(S(N)(=O)=O)c1", "note": "(stereo not shown) [CM/1, 1-methyl-2-(3'-sulphamyl-4'-chlorobenzamido)-isoindoline]", "values": [{"measurement": "selectivity ratio at 672 h", "setting": "[1]; daily doses up to 40 mg/kg oral, read-out: tolerated doses relative to the maximum daily human therapeutic dose", "result": 560}, {"measurement": "NOAEL at 672 h", "setting": "[1]; oral, read-out: well tolerated daily dose (subacute toxicity)", "result": "≥ 40", "unit": "mg/kg/day"}, {"measurement": "alteration in the organs examined or in the gastro-enteric mucosa", "setting": "male Wistar rat [2]", "result": "No alteration was noted"}, {"measurement": "behaviour and food consumption", "setting": "male Wistar rat [2]", "result": "Behaviour was normal, as was food consumption"}, {"measurement": "deaths during the 28 days of treatment", "setting": "male Wistar rat [2]", "result": "no deaths were recorded"}, {"measurement": "sodaemia and potassaemia", "setting": "male Wistar rat [2]", "result": "slight reduction in the potassaemia and sodaemia"}, {"measurement": "symptomatology", "setting": "male Wistar rat [2]", "result": "No particular symptomatology was noted"}, {"measurement": "urine composition", "setting": "male Wistar rat [2]; collected days 25-27, versus controls", "result": "in practice similar for the controls and treated animals"}, {"measurement": "hematic biochemical constants", "setting": "male Wistar rat [2]; except sodaemia and potassaemia", "result": "all within the range of normal values for the rat of this stock"}, {"measurement": "body weight", "setting": "male Wistar rat [2]; versus controls", "result": "in practice similar to the data for the controls"}, {"measurement": "hemograms", "setting": "male Wistar rat [2]; versus controls", "result": "all normal, without any significant differences between the controls and treated animals"}, {"measurement": "water consumption", "setting": "male Wistar rat [2]; versus controls", "result": "slightly greater than the controls"}, {"measurement": "damaging side-effects", "setting": "male Wistar rat [3]", "result": "no damagingside-effects"}]}
